Reference: paper PMC3088502 (Bioorganic & medicinal chemistry, 2011)

Experiments:
[1] = system: AKT phosphorylation at Ser473 in BxPC3 cells; test: Detection of pAKT; type: cell-based, Human; conditions: 10 μM, 4 h
BxPC3 cells = test: Cellular proliferation / cell survival micro-cytotoxicity; type: cell-based, Human

Question: Which “Inhibition of AKT phosphorylation at Ser473 (pAKT), in words” value [1] does the source give for `CCCCCCCCCCCCc1ccc(S(=O)(=O)Nc2ccccc2)cc1` [Compound 45] here?
Answer: did not inhibit the production of pAKT

Question: What about the “Inhibition of BxPC-3 cell proliferation, in words” value (BxPC3 cells) of the same compound?
Answer: did inhibit BxPC-3 cell proliferation
